In ChEMBL document CHEMBL5136977, “Discovery of 1-(5-(1H-benzo[d]imidazole-2-yl)-2,4-dimethyl-1H-pyrrol-3-yl)ethan-1-one derivatives as novel and potent bromodomain and extra-terminal (BET) inhibitors with anticancer efficacy” (Eur J Med Chem, 2022):
The source made the active and inactive calls. The calls are words filed in the database; no cut-off is given here.

Experiments:
[1] = test system: MV4-11; experiment: Antiproliferative activity against human MV4-11 cells assessed as cell growth inhibition incubated for 72 hrs by CellTiter-Glo assay; format: functional, cell-based; conditions: MV4-11, 72 h
[2] = Tmax in Sprague-Dawley rat at 10 mg/kg, po by LC-MS/MS analysis; format: ADME, organism-based; conditions: in vivo
[3] = Oral bioavailability in Sprague-Dawley rat at 10 mg/kg by LC-MS/MS analysis; format: ADME, organism-based; conditions: in vivo
[4] = test system: MV4-11; experiment: Induction of cell cycle arrest in human MV4-11 cells assessed as accumulation of cells at G2/M phase at 200 nM incubated for 48 hrs by propidium iodide staining based flow cytometric analysis (reference value: 8%); format: functional
[5] = Metabolic stability in human liver microsomes assessed as elimination half life incubated for 1 hr by LC-MS/MS analysis; format: ADME, Microsome; conditions: read-out: beta t1/2
[6] = Half life in Sprague-Dawley rat at 1 mg/kg, iv by LC-MS/MS analysis; format: ADME, organism-based; conditions: in vivo
[7] = test system: MV4-11; experiment: Induction of cell apoptosis in human MV4-11 cells assessed as upregulation of cleaved PARP level at 62.5 to 250 nM incubated for 24 hrs by Western blotting analysis; format: functional, cell-based; conditions: dose 62.5-250 nM
[8] = test system: UACC-62; experiment: Antiproliferative activity against human UACC-62 cells assessed as cell growth inhibition measured after 72 hrs by CellTiter-Glo assay; format: functional
[9] = test system: MV4-11; experiment: Antitumor activity against human MV4-11 cells xenografted BALB/c nude mouse model assessed as tumor growth inhibition at 80 mg/kg, po QD administered for 28 consecutive days; format: functional; conditions: MV4-11, 672 h, time 28 day, read-out: TGI
[10] = Metabolic stability in rat liver microsomes assessed as elimination half life incubated for 1 hr by LC-MS/MS analysis; format: ADME, Microsome; conditions: read-out: beta t1/2
[11] = AUC (0 to infinity) in Sprague-Dawley rat at 1 mg/kg, iv by LC-MS/MS analysis; format: ADME, organism-based; set-up: time infinity, dose 1 mg/kg, route iv; conditions: in vivo
[12] = test system: CAKI-1; experiment: Antiproliferative activity against human CAKI-1 cells assessed as cell growth inhibition measured after 72 hrs by CellTiter-Glo assay; format: functional
[13] = Induction of cell apoptosis in human MV4-11 cells assessed as late apoptotic cells at 500 nM incubated for 48 hrs by Annexin V-FITC/Propidium iodide staining based flow cytometry analysis (reference value: 1.99%); format: functional
[14] = Clearance in Sprague-Dawley rat at 1 mg/kg, iv by LC-MS/MS analysis; format: ADME, organism-based; conditions: in vivo
[15] = Induction of cell apoptosis in human MV4-11 cells assessed as early apoptotic cells at 500 nM incubated for 48 hrs by Annexin V-FITC/Propidium iodide staining based flow cytometry analysis (reference value: 1.42%); format: functional
[16] = test system: MV4-11; experiment: Antitumor activity against human MV4-11 cells xenografted BALB/c nude mouse model assessed as tumor growth inhibition at 40 mg/kg, po QD administered for 28 consecutive days; format: functional; conditions: MV4-11, 672 h, time 28 day, read-out: TGI
[17] = test system: MDA-MB-468; experiment: Antiproliferative activity against human MDA-MB-468 cells assessed as cell growth inhibition measured after 72 hrs by CellTiter-Glo assay; format: functional
[18] = Metabolic stability in dog liver microsomes assessed as elimination half life incubated for 1 hr by LC-MS/MS analysis; format: ADME, Canis lupus familiaris, Microsome; conditions: read-out: beta t1/2
[19] = test system: MV4-11; experiment: Induction of cell cycle arrest in human MV4-11 cells assessed as accumulation of cells at G2/M phase at 100 nM incubated for 48 hrs by propidium iodide staining based flow cytometric analysis (reference value: 8%); format: functional
[20] = Induction of cell apoptosis in human MV4-11 cells assessed as early apoptotic cells at 1000 nM incubated for 48 hrs by Annexin V-FITC/Propidium iodide staining based flow cytometry analysis (reference value: 1.42%); format: functional
[21] = Induction of cell apoptosis in human MV4-11 cells assessed as […] cells at 500 nM incubated for 48 hrs by Annexin V-FITC/Propidium iodide staining based flow cytometry analysis (reference value: 96.6%); format: functional
[22] = test system: MV4-11; experiment: Antitumor activity against human MV4-11 cells xenografted BALB/c nude mouse model assessed as tumor growth inhibition at 20 mg/kg, po QD administered for 28 consecutive days; format: functional; conditions: MV4-11, 672 h, time 28 day, read-out: TGI
[23] = Cmax in Sprague-Dawley rat at 10 mg/kg, po by LC-MS/MS analysis; format: ADME, organism-based; set-up: dose 10 mg/kg, route po; conditions: in vivo
[24] = Metabolic stability in dog liver microsomes assessed as intrinsic clearance incubated for 1 hr by LC-MS/MS analysis; format: ADME, Canis lupus familiaris, Microsome; conditions: read-out: CLH
[25] = test system: HL-60(TB); experiment: Antiproliferative activity against human HL-60(TB) cells assessed as cell growth inhibition measured after 72 hrs by CellTiter-Glo assay; format: functional
[26] = Metabolic stability in monkey liver assessed as intrinsic clearance incubated for 1 hr by LC-MS/MS analysis; format: ADME, tissue-based, Macaca mulatta; conditions: rhesus monkey, read-out: CLH
[27] = test system: SNB-75; experiment: Antiproliferative activity against human SNB-75 cells assessed as cell growth inhibition measured after 72 hrs by CellTiter-Glo assay; format: functional
[28] = Half life in Sprague-Dawley rat at 10 mg/kg, po by LC-MS/MS analysis; format: ADME, organism-based; conditions: in vivo
[29] = Induction of cell apoptosis in human MV4-11 cells assessed as late apoptotic cells at 1000 nM incubated for 48 hrs by Annexin V-FITC/Propidium iodide staining based flow cytometry analysis (reference value: 1.99%); format: functional
[30] = Metabolic stability in rat liver microsomes assessed as intrinsic clearance incubated for 1 hr by LC-MS/MS analysis; format: ADME, Microsome; conditions: read-out: CLH
[31] = Metabolic stability in monkey liver microsomes assessed as elimination half life incubated for 1 hr by LC-MS/MS analysis; format: ADME, Macaca mulatta, Microsome; conditions: rhesus monkey, read-out: beta t1/2
[32] = test system: MV4-11; experiment: Induction of cell cycle arrest in human MV4-11 cells assessed as downregulation of c-myc expression incubated for 24 hrs by Western blotting analysis; format: functional, cell-based; conditions: dose 62.5-250 nM, DDE = dose-dependent effect
[33] = Induction of cell apoptosis in human MV4-11 cells assessed as late apoptotic cells at 200 nM incubated for 48 hrs by Annexin V-FITC/Propidium iodide staining based flow cytometry analysis (reference value: 1.99%); format: functional
[34] = test system: MV4-11; experiment: Induction of cell cycle arrest in human MV4-11 cells assessed as accumulation of cells at S phase at 100 nM incubated for 48 hrs by propidium iodide staining based flow cytometric analysis (reference value: 26.29%); format: functional
[35] = test system: NCI-H522; experiment: Antiproliferative activity against human NCI-H522 cells assessed as cell growth inhibition measured after 72 hrs by CellTiter-Glo assay; format: functional
[36] = Metabolic stability in dog liver assessed as intrinsic clearance incubated for 1 hr by LC-MS/MS analysis; format: ADME, tissue-based, Canis lupus familiaris; conditions: read-out: CLH
[37] = test system: MV4-11; experiment: Induction of cell cycle arrest in human MV4-11 cells assessed as accumulation of cells at S phase at 200 nM incubated for 48 hrs by propidium iodide staining based flow cytometric analysis (reference value: 26.29%); format: functional
[38] = Induction of cell apoptosis in human MV4-11 cells assessed as […] cells at 200 nM incubated for 48 hrs by Annexin V-FITC/Propidium iodide staining based flow cytometry analysis (reference value: 96.6%); format: functional
[39] = C0 in Sprague-Dawley rat at 1 mg/kg, iv by LC-MS/MS analysis; format: ADME, organism-based; conditions: in vivo

CC(=O)c1c(C)[nH]c(-c2nc3cc(N4CCN(C)CC4)ccc3[nH]2)c1-c1ccccc1
IC50 [1]: 15 nM | Tmax [2]: 3.33 h | bioavailability [3]: 111% | Activity [4]: 2.92% | half-life [5]: 3.32 h | half-life [6]: 1.86 h | Activity [7]: Active | GI50 [8]: 274 nM | inhibition in vivo at 80 mg/kg [9]: 34.8% | half-life [10]: 1.11 h | AUC(0-inf) [11]: 725 ng·h/mL | GI50 [12]: 211 nM | Activity [13]: 76.4% | clearance [14]: 24.3 mL/min/kg | Activity [15]: 16.9% | inhibition in vivo at 40 mg/kg [16]: 103% | GI50 [17]: 361 nM | half-life [18]: 0.25 h | Activity [19]: 6.33% | Activity [20]: 39.3% | Activity [21]: 6.31% | inhibition in vivo at 20 mg/kg [22]: 48.7% | Cmax [23]: 1270 ng/mL | microsomal CLint [24]: 92.2 µL/min/mg | GI50 [25]: 261 nM | CLint scaled [26]: 23.8 mL/min/kg | GI50 [27]: 41.6 nM | half-life [28]: 4.04 h | Activity [29]: 12.2% | microsomal CLint [30]: 20.9 µL/min/mg | half-life [31]: 1.42 h | Activity [32]: Dde | Activity [33]: 4.78% | Activity [34]: 18.26% | GI50 [35]: 258 nM | CLint scaled [36]: 133 mL/min/kg | Activity [37]: 9.68% | Activity [38]: 89.7% | C0 [39]: 548 ng/mL
